How the values were obtained:
[1] = test system: α(13/4)fucosyltransferase; assay: Fucosyltransferase assay: relative rates of fucose transfer onto the 3-hydroxy of GlcNAc in βGal(1-4)βGlcNAc-OR; assay type: biochemical, human; conditions: fucosylation of disaccharide glycosides βGal(1-4)βGlcNAc-OR with different substituents at the 6-position of galactose
Protocol: The βGlcNAc α(13/4)fucosyltranferase was purified from human milk, as reported.^4 The enzymatic reactions were carried out at 37° C. in a plastic tube using a sodium cacodylate buffer (100 mM, pH 6.5), MnCl2 (10 mM), ATP (1.6 mM), NaN3 (1.6 mM). The reaction products were isolated and purified as indicated above.
Experiments were conducted to determine the relative rates of transfer of fucosylation onto the 3-hydroxy of the GlcNAc in disaccharide glycosides βGal(1-4)βGlcNAc-OR having different substituents at the 6-position of the galactose. Fucosyltransferase assays were conducted with α(13/4)fucosyltransferase in a manner similar to that described in the art^4 and gave the following results: […]

Balb/c mice [2] = assay: Mouse footpad swelling assay, DTH inflammatory response to L111 S-Layer protein; assay type: in vivo; set-up: INCREASE IN FOOTPAD SWELLING: unit not given here
Protocol: (§1) DTH inflammatory responses were measured using the mouse footpad swelling assay as described by Smith and Ziola^31. […] Seven days later, each group of mice was footpad-challenged with 10 μg of L-111 S-Layer protein. The resulting inflammatory footpad swelling was measured with a Mitutoyo Engineering micrometer 24 hours after challenge.
To assess the effect of hexasaccharide glycoside 5a on the inflammatory DTH response, groups of mice received 100 μg of this compound, injected into the tail vein, 5 hours after challenge. Control groups received 100 μL of phosphate-buffered saline (PBS).

Balb/c mice [3] = assay: Persistence of suppression of the DTH inflammatory response, rechallenge 11 weeks after primary immunization; assay type: in vivo, mouse; conditions: rechallenge with L111 S-Layer protein 11 weeks after primary immunization
Protocol: as §1
i. The identical groups of mice treated with hexasaccharide glycoside 5a in Example 7 were rechallenged with L111 S-Layer protein 11 weeks after primary immunization.

ELAM-1 = ELAM-1 dependent cell adhesion to activated vascular endothelium (U937 or HL60 binding to TNFα-stimulated HUVECs); assay type: cell-based, human; conditions: HUVECs stimulated with TNFα (10 ng/ml); U937 or HL60 cells
Protocol: This example examines whether hexasaccharide 5a could inhibit ELAM-1 dependent cell adhesion to activated vascular endothelium. Specifically, an vitro cell binding assay was preformed as described by Lowe et al^33. Briefly, human umbilical vein endothelial cells (HUVECs purchased from Cell Systems, Seattle, Wash., USA) were stimulated with TNFα (10 ng/ml) to express ELAM-1.

Relative Rate of Transfer [1]	Structure (SMILES)	INCREASE IN FOOTPAD SWELLING (Balb/c mice [2]; 100 μg injected into the tail vein 5 hours after challenge, swelling measured 24 hours after challenge)	footpad swelling as compared to the control mice (Balb/c mice [2]; 100 μg into the tail vein 5 hours after challenge, 24 hours after challenge)	footpad swelling relative to that exhibited in mice treated with PBS (Balb/c mice [3])	reduction in footpad swelling (Balb/c mice [3]; versus PBS control)	inhibition of ELAM-1 dependent binding to the HUVECs (ELAM-1)
100	COC(=O)CCCCCCCCO[C@@H]1O[C@H](CO)[C@@H](O[C@@H]2O[C@H](CO)[C@H](O)[C@H](O)[C@H]2O)[C@H](O)[C@H]1NC(C)=O [--OH]					
9	COC(=O)CCOCCO[C@@H]1O[C@H](CO)[C@@H](O[C@@H]2O[C@H](C)[C@H](O)[C@H](O)[C@H]2O)[C@H](O)[C@H]1NC(C)=O [H]					
	COC(=O)CCCCCCCCO[C@@H]1O[C@H](CO)[C@@H](O[C@@H]2O[C@H](CO)[C@H](O)[C@H](O[C@@H]3O[C@H](CO)[C@@H](O[C@@H]4O[C@H](CO)[C@H](O)[C@H](O[C@]5(C(=O)O)C[C@H](O)[C@@H](NC(C)=O)[C@H]([C@H](O)[C@H](O)CO)O5)[C@H]4O)[C@H](O)[C@H]3NC(C)=O)[C@H]2O)[C@H](O[C@@H]2O[C@@H](C)[C@@H](O)[C@@H](O)[C@@H]2O)[C@H]1NC(C)=O [hexasaccharide glycoside 5a, 8-Methoxycarbonyloctyl (5-Acetamido-3,5-dideoxy-α-D-glycero-D-galacto-2-nonulopyranosylonicacid)-(2-3)--O--β-D-galactopyranosyl-(1-4)--O-- 2-acetamido-2-deoxy-β-D-glucopyranosyl-(1-3)--O--β-D-galactopyranosyl-(1-4)--O--[α-L-fucopyranosyl-(1-3)--O--]2-acetamido-2-deoxy-β-D-glucopyranoside]	1.5	less than 50%	about 60%	about 40%	inhibits ELAM-1 dependent binding to the HUVECs

Reference: US5374655A, “Methods for the synthesis of monofucosylated oligosaccharides terminating in di-N-acetyllactosaminyl structures” (Alberta Research Council, priority 1992, dated 1994)
